Measured values: patent US8877775B2, “Substituted 2-aza-bicyclo[2.2.2]octane-3-carboxylic acid (benzyl-cyano-methyl)-amides inhibitors of cathepsin C” (Boehringer Ingelheim International GmbH, priority 2013, dated 2014)

Key:
[1] = molecular target: recombinant human DPPI (Cathepsin C) (Homo sapiens (Human), UniProt P53634); experiment: Inhibition of human DPPI (Cathepsin C); assay type: biochemical; details: substrate Gly-Arg-AMC 50 μM, 30 min, room temperature
Source text: Inhibition of Human DPPI (Cathepsin C)
Materials: Microtiterplates (Optiplate-384 F) were purchased from PerkinElmer (Prod. No. 6007270). The substrate Gly-Arg-AMC was from Biotrend (Prod.-No. 808756 Custom peptide). Bovine serum albumin (BSA; Prod. No. A3059) and Dithiothreitol (DTT; Prod. No D0632) were from Sigma. TagZyme buffer was from Riedel-de-Haen (Prod.-No. 04269), NaCl was from Merck (Prod.-No. 1.06404.1000) and morpholinoethane sulfonic acid (MES), was from Serva (Prod.-No. 29834). The DPP1 inhibitor Gly-Phe-DMK was purchased from MP Biomedicals (Prod.-No. 03DK00625). The recombinant human DPPI was purchased from Prozymex. All other materials were of highest grade commercially available.
The following buffers were used: MES buffer: 25 mM MES, 50 mM NaCl, 5 mM DTT, adjusted to pH 6.0, containing 0.1% BSA; TAGZyme Buffer: 20 mM NaH2PO4, 150 mM NaCl adjusted to pH 6.0 with HCl
The recombinant human DPPI was diluted in TAGZyme buffer to 1 U/ml (38.1 μg/ml, respectively), and then activated by mixing in a 1:2 ratio with a Cysteamine aqueous solution (2 mM) and incubating for 5 min at room temperature.
Five uL test compound (final concentration 0.1 nM to 100 μM) in aqua bidest (containing 4% DMSO, final DMSO concentration 1%) were mixed with 10 μL of DPPI in MES buffer (final concentration 0.0125 ng/μL) and incubated for 10 min. Then, 5 μL of substrate in MES buffer (final concentration 50 μM) were added. The microtiter plates were then incubated at room temperature for 30 min. Then, the reaction was stopped by adding 10 μL of Gly-Phe-DMK in MES-buffer (final concentration 1 μM). The fluorescence in the wells was determined using a Molecular Devices SpectraMax M5 Fluorescence Reader (Ex 360 nm, Em 460 nm) or an Envision Fluorescence Reader (Ex 355 nm, Em 460 nm).
The analysis of the data was performed by calculating the percentage of fluorescence in the presence of test compound in comparison to the fluorescence of the vehicle control after subtracting the background fluorescence using the following formula: (RFU(sample)−RFU(background))*100/(RFU(control)−RFU(background))
Data from these calculations were used to generate IC50 values for inhibition of DPPI, respectively.

[2] = molecular target: recombinant human Cathepsin K (Homo sapiens (Human), UniProt P43235); experiment: Inhibition of human Cathepsin K; assay type: biochemical; details: substrate Z-Gly-Pro-Arg-AMC 12.5 μM, 60 min, room temperature
Source text: Inhibition of Human Cathepsin K
Materials: Microtiterplates (Optiplate-384 F were purchased from PerkinElmer (Prod. No. 6007270). The substrate Z-Gly-Pro-Arg-AMC was from Biomol (Prod.-No. P-142). L-Cysteine (Prod. No. 168149) was from Sigma. Sodium actetate was from Merck (Prod.-No. 6268.0250), EDTA was from Fluka (Prod.-No. 03680). The inhibitor E-64 was purchased from Sigma (Prod.-No. E3132). The recombinant human Cathepsin K proenzyme was purchased from Biomol (Prod. No. SE-367). All other materials were of highest grade commercially available.
The following buffers were used: Activation buffer: 32.5 mM sodium acetate, adjusted to pH 3.5 with HCl; Assay buffer: 150 mM sodium acetate, 4 mM EDTA, 20 mM L-Cysteine, adjusted to pH 5.5 with HCl,
To activate the proenzyme, 5 μl procathepsin K were mixed with 1 ul activation buffer, and incubated at room temperature for 30 min.
5 μL test compound (final concentration 0.1 nM to 100 μM) in aqua bidest (containing 4% DMSO, final DMSO concentration 1%) were mixed with 10 uL of Cathepsin K in assay buffer (final concentration 2 ng/μL) and incubated for 10 min. Then 5 μL of substrate in assay buffer (final concentration 12.5 μM) were added. The plates were then incubated at room temperature for is 60 min. Then, the reaction was stopped by adding 10 μL of E64 in assay buffer (final concentration 1 μM). The fluorescence in the wells was determined using a Molecular Devices SpectraMax M5 Fluorescence Reader (Ex 360 nm, Em 460 nm).
Each assay microtiter plate contains wells with vehicle controls (1% DMSO in bidest) as reference for non-inhibited enzyme activity (100% Ctl; high values) and wells with inhibitor (E64 in bidest+1% DMSO, final concentration 1 μM) as controls for background fluorescence (0% Ctl; low values). The analysis of the data was performed by calculating the percentage of fluorescence in the presence of test compound in comparison to the fluorescence of the vehicle control after subtracting the background fluorescence: (RFU(sample)−RFU(background))*100/(RFU(control)−RFU(background))
Data from these calculations were used to generate IC50 values for inhibition of Cathepsin K, respectively.

recombinant human DPPI (Cathepsin C), sequence (P53634 231-394): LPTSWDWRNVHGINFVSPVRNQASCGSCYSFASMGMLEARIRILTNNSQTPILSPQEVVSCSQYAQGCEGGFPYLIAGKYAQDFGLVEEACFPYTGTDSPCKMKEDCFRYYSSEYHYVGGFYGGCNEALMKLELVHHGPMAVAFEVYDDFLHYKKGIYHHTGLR
recombinant human DPPI (Cathepsin C), sequence (P53634 395-463): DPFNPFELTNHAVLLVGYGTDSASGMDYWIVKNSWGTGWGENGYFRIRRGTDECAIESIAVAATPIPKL
recombinant human DPPI (Cathepsin C), sequence (P53634 25-134): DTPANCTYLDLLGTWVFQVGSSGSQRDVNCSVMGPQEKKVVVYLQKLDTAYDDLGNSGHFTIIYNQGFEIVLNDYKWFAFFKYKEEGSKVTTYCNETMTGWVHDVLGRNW
recombinant human Cathepsin K, sequence (P43235 115-329): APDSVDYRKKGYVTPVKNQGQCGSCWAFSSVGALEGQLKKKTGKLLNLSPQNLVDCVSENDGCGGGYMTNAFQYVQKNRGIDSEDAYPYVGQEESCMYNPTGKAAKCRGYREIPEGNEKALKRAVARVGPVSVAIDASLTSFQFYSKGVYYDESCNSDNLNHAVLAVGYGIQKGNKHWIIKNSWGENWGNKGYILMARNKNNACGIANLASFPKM

| IC50 [1] | IC50 [2] | Structure (SMILES) |
| --- | --- | --- |
| 66.4 nM | 5700 nM | N#Cc1ccc(-c2ccc(C[C@@H](C#N)NC(=O)[C@H]3N[C@H]4CC[C@@H]3CC4)cc2)cc1F [Example 7, (2S)—N-[(1S)-1-cyano-2-[4-(4-cyano-3-fluoro-phenyl)phenyl]ethyl]-3-azabicyclo[2.2.2]octane-2-carboxamide] |
| 97.4 nM | 9900 nM | CS(=O)(=O)Nc1cccc(-c2ccc(C[C@@H](C#N)NC(=O)[C@H]3NC4CCC3CC4)cc2)c1 [Example 12] |

More lines, now with the values behind:

| Structure (SMILES) | IC50 [1] | IC50 [2] |
| --- | --- | --- |
| CS(=O)(=O)c1cccc(-c2ccc(C[C@@H](C#N)NC(=O)[C@H]3NC4CCC3CC4)cc2)c1 [Example 10] | 73.5 nM | 5300 nM |
| CS(=O)(=O)c1cc(-c2ccc(C[C@@H](C#N)NC(=O)[C@H]3NC4CCC3CC4)cc2)ccc1C#N [Example 8] | 70.2 nM | 5300 nM |
| N#C[C@H](Cc1ccc(-c2ccc3c(c2)CNC3=O)cc1)NC(=O)[C@H]1NC2CCC1CC2 [Example 11] | 86.7 nM | 11000 nM |
| N#C[C@H](Cc1ccc(-c2ccc3c(c2)NC(=O)C3)cc1)NC(=O)[C@H]1NC2CCC1CC2 [Example 2, (2S)—N-[(1S)-cyano-2-[4-(2-oxoindolin-6-yl)phenyl]ethyl]-3-azabicyclo[2.2.2]octane-2-carboxamide] | 50.1 nM | 4200 nM |
| CN1C(=O)Cc2ccc(-c3ccc(C[C@@H](C#N)NC(=O)[C@H]4N[C@H]5CC[C@@H]4CC5)cc3)cc21 [Example 4] | 32.2 nM | 6300 nM |
